Laboratory results published in patent US12139520B2 (priority 2020, dated 2024).
Bridge positions count the residues as written; N and C are the ends. Square brackets hold non-standard residues; d marks the D form. Peptide text beside a SMILES is read from it. Hyp = O=C(O)[C@@H]1C[C@@H](O)CN1; Cit = NC(=O)NCCC[C@H](N)C(=O)O

Assays:
hAMY3 receptor = molecular target: T1, hAMY3 receptor (Homo sapiens, UniProt O60896+P30988); test: cAMP assay for in vitro receptor activation, hAMY3-R; assay type: cell-based; settings: cAMP assay, hAMY3 receptor; read-out: hAMY3R EC50
T1 sequence (P30988 25-474): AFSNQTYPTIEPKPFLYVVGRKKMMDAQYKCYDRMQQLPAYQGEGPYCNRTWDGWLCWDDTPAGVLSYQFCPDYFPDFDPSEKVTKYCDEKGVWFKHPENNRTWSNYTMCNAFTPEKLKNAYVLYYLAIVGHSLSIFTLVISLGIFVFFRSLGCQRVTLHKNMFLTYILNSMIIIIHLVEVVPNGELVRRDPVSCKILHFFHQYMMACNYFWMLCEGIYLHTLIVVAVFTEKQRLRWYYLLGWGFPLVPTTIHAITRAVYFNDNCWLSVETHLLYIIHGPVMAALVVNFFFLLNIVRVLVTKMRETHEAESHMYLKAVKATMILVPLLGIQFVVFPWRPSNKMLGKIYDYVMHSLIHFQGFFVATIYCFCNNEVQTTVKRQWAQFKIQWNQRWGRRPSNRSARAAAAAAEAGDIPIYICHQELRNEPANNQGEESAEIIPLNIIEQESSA
T1 sequence (O60896 24-148 partner): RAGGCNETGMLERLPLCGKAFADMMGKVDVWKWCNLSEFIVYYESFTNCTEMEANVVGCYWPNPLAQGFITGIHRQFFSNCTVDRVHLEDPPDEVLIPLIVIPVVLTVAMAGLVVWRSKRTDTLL
Procedure, shortened: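 Graded compound concentrations were applied for 30 min at room temperature to stably hAMY3-expressing cells in DPBS, 0.05% casein, 0.5 mM IBMX; cAMP detected by TR-FRET.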

hAM1 receptor = hAM1 receptor (Homo sapiens, UniProt O60895+Q16602); test: cAMP assay for in vitro receptor activation, hAM1-R; assay type: cell-based; settings: cAMP assay, hAM1 receptor; read-out: hAM1R EC50
Procedure, shortened: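 Monoclonal stable hAM1-overexpressing cells, thawed from frozen stock; 8000 cells/well in DPBS + 0.05% casein + 0.5 mM IBMX; read-out cAMP.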

[1] = Physical stability of peptide analogues (Thioflavin T fibrillation); assay type: physicochemical; settings: maximum ThT signal normalized between hAMY maximum and buffer background; 40° C., shaking, four days; pH 7 per table title
Procedure, shortened: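 Samples are stressed at 40 °C for four days, being shaken at 700 rpm before each 10-min fluorescence reading of 4 μM Thioflavin T. Buffers were pH 4 acetate or pH 7 phosphate. Reported values are smoothed maximum ThT signals as a percentage of the hAMY-to-background range.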

Sequence of hAM1 receptor (Q16602 23-461): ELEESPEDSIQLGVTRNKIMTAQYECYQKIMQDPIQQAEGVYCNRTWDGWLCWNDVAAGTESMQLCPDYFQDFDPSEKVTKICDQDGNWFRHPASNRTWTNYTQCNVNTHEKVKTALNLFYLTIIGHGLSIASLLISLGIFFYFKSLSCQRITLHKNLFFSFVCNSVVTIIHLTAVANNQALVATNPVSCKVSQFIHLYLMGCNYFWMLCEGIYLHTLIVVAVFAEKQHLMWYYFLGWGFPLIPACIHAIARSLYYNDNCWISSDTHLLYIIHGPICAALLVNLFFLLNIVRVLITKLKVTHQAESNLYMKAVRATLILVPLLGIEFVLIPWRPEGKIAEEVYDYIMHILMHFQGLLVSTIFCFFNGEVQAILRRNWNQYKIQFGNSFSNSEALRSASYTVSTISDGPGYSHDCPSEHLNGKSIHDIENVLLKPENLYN
Sequence of hAM1 receptor (O60895 43-175 partner): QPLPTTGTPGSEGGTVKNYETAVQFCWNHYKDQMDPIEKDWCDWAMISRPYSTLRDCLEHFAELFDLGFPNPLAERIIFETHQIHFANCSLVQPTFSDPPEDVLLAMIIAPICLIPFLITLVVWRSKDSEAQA

EC50 (hAMY3 receptor) [nM]	EC50 (hAM1 receptor) [nM]	Max ThT signal (%) [1] [%]	SMILES
0.153	> 5000	1.900	CC[C@H](C)[C@H](NC(=O)[C@H](CCC(N)=O)NC(=O)[C@H](Cc1c[nH]cn1)NC(=O)[C@H](C)NC(=O)[C@H](CC(C)C)NC(=O)[C@H](CCCNC(=N)N)NC(=O)[C@H](CCC(N)=O)NC(=O)[C@@H](NC(=O)[C@@H](NC(=O)[C@@H]1CSSC[C@H](NC(=O)CN)C(=O)N[C@@H](CCCNC(=N)N)C(=O)N[C@@H](Cc2ccccc2)C(=O)NCC(=O)N[C@@H]([C@@H](C)O)C(=O)N1)[C@@H](C)O)C(C)C)C(=O)N[C@@H](Cc1ccc(O)cc1)C(=O)N[C@@H](CCC(N)=O)C(=O)N[C@@H](Cc1ccccc1)C(=O)N[C@H](C(=O)N[C@@H](CC(=O)O)C(=O)N[C@@H](CCCCN)C(=O)N[C@@H](Cc1ccccc1)C(=O)N[C@@H](CCCCN)C(=O)N[C@@H](CC(=O)O)C(=O)N[C@@H](CC(N)=O)C(=O)N[C@H](C(=O)N[C@@H](C)C(=O)N1CCC[C@H]1C(=O)N[C@@H](CCCNC(=N)N)C(=O)N[C@@H](CO)C(=O)N[C@@H](CCCCN)C(=O)N[C@H](C(=O)N[C@@H](CO)C(=O)N1CCC[C@H]1C(=O)N[C@@H](CCC(N)=O)C(=O)N[C@H](C(=O)N1C[C@H](O)C[C@H]1C(N)=O)[C@@H](C)O)[C@@H](C)CC)C(C)C)[C@@H](C)O [compound 212] (H-GCRFGTCTVQRLAHQIYQFTDKFKDNVAPRSKISPQT[Hyp]-NH2; disulfide 2-7; N-terminus assumed)
0.01	> 5000	4.200	CC[C@H](C)[C@H](NC(=O)[C@H](CCC(N)=O)NC(=O)[C@H](Cc1c[nH]cn1)NC(=O)[C@H](C)NC(=O)[C@H](CC(C)C)NC(=O)[C@H](CCCNC(N)=O)NC(=O)[C@H](CCC(N)=O)NC(=O)[C@@H](NC(=O)[C@@H](NC(=O)[C@@H]1CSSC[C@H](NC(=O)[C@@H](N)CCCCN)C(=O)N[C@@H](CC(N)=O)C(=O)N[C@@H]([C@@H](C)O)C(=O)N[C@@H](C)C(=O)N[C@@H]([C@@H](C)O)C(=O)N1)[C@@H](C)O)C(C)C)C(=O)N[C@@H](C)C(=O)N[C@@H](CCC(N)=O)C(=O)N[C@@H](Cc1ccccc1)C(=O)N[C@H](C(=O)N[C@@H](CC(=O)O)C(=O)N[C@@H](CCCCN)C(=O)N[C@@H](CC(=O)O)C(=O)N[C@@H](CCCCN)C(=O)N[C@@H](CC(=O)O)C(=O)N[C@@H](CC(N)=O)C(=O)N[C@H](C(=O)N[C@@H](C)C(=O)N1CCC[C@H]1C(=O)N1CCC[C@H]1C(=O)N[C@H](C(=O)N[C@@H](CC(N)=O)C(=O)N[C@H](C(=O)NCC(=O)N[C@@H](CO)C(=O)N[C@@H](CC(N)=O)C(=O)NCC(=O)N1C[C@H](O)C[C@H]1C(N)=O)C(C)C)[C@@H](C)O)C(C)C)[C@@H](C)O [compound 246] (H-KCNTATCTVQ[Cit]LAHQIAQFTDKDKDNVAPPTNVGSNG[Hyp]-NH2; disulfide 2-7)
0.008	> 5000	14.600	CC[C@H](C)[C@H](NC(=O)[C@H](CCC(N)=O)NC(=O)[C@H](Cc1c[nH]cn1)NC(=O)[C@H](C)NC(=O)[C@H](CC(C)C)NC(=O)[C@H](Cc1c[nH]c2ccccc12)NC(=O)[C@H](CCC(N)=O)NC(=O)[C@@H](NC(=O)[C@@H](NC(=O)[C@@H]1CSSC[C@H](NC(=O)[C@@H](N)CCCCN)C(=O)N[C@@H](CC(N)=O)C(=O)N[C@@H]([C@@H](C)O)C(=O)N[C@@H](C)C(=O)N[C@@H]([C@@H](C)O)C(=O)N1)[C@@H](C)O)C(C)C)C(=O)N[C@@H](Cc1ccc(O)cc1)C(=O)N[C@@H](CCC(N)=O)C(=O)N[C@@H](Cc1ccccc1)C(=O)N[C@H](C(=O)N[C@@H](CC(=O)O)C(=O)N[C@@H](CCCCN)C(=O)N[C@@H](CC(=O)O)C(=O)N[C@@H](CCCCN)C(=O)N[C@@H](CC(=O)O)C(=O)N[C@@H](CC(N)=O)C(=O)N[C@H](C(=O)N[C@@H](C)C(=O)N1CCC[C@H]1C(=O)N1CCC[C@H]1C(=O)N[C@H](C(=O)N[C@@H](CC(N)=O)C(=O)N[C@H](C(=O)NCC(=O)N[C@@H](CO)C(=O)N[C@@H](CC(N)=O)C(=O)NCC(=O)N1C[C@H](O)C[C@H]1C(N)=O)C(C)C)[C@@H](C)O)C(C)C)[C@@H](C)O [compound 330] (H-KCNTATCTVQWLAHQIYQFTDKDKDNVAPPTNVGSNG[Hyp]-NH2; disulfide 2-7; N-terminus assumed)
0.011	> 5000	6.400	CC[C@H](C)[C@H](NC(=O)[C@H](CCC(N)=O)NC(=O)[C@H](Cc1c[nH]cn1)NC(=O)[C@H](C)NC(=O)[C@H](CC(C)C)NC(=O)[C@H](CCCNC(N)=O)NC(=O)[C@H](CCC(N)=O)NC(=O)[C@@H](NC(=O)[C@@H](NC(=O)[C@@H]1CSSC[C@H](NC(=O)[C@@H](N)CCCCN)C(=O)N[C@@H](CC(N)=O)C(=O)N[C@@H]([C@@H](C)O)C(=O)N[C@@H](C)C(=O)N[C@@H]([C@@H](C)O)C(=O)N1)[C@@H](C)O)C(C)C)C(=O)N[C@@H](Cc1ccc(O)cc1)C(=O)N[C@@H](CCC(N)=O)C(=O)N[C@@H](Cc1ccccc1)C(=O)N[C@H](C(=O)N[C@@H](CC(=O)O)C(=O)N[C@@H](CCCCN)C(=O)N[C@@H](CC(=O)O)C(=O)N[C@@H](C)C(=O)N[C@@H](CC(=O)O)C(=O)N[C@@H](CC(N)=O)C(=O)N[C@H](C(=O)N[C@@H](C)C(=O)N1CCC[C@H]1C(=O)N1CCC[C@H]1C(=O)N[C@H](C(=O)N[C@@H](CC(N)=O)C(=O)N[C@H](C(=O)NCC(=O)N[C@@H](CO)C(=O)N[C@@H](CC(N)=O)C(=O)NCC(=O)N1C[C@H](O)C[C@H]1C(N)=O)C(C)C)[C@@H](C)O)C(C)C)[C@@H](C)O [compound 250] (H-KCNTATCTVQ[Cit]LAHQIYQFTDKDADNVAPPTNVGSNG[Hyp]-NH2; disulfide 2-7; N-terminus assumed)
0.008	> 5000	11.900	CC[C@H](C)[C@H](NC(=O)[C@H](CCC(N)=O)NC(=O)[C@H](Cc1c[nH]cn1)NC(=O)[C@H](C)NC(=O)[C@H](CC(C)C)NC(=O)[C@H](Cc1c[nH]c2ccccc12)NC(=O)[C@H](CCC(N)=O)NC(=O)[C@@H](NC(=O)[C@@H](NC(=O)[C@@H]1CSSC[C@H](NC(=O)[C@@H](N)CCCCN)C(=O)N[C@@H](CC(N)=O)C(=O)N[C@@H]([C@@H](C)O)C(=O)N[C@@H](C)C(=O)N[C@@H]([C@@H](C)O)C(=O)N1)[C@@H](C)O)C(C)C)C(=O)N[C@@H](Cc1ccc(O)cc1)C(=O)N[C@@H](CCC(N)=O)C(=O)N[C@@H](Cc1ccccc1)C(=O)N[C@H](C(=O)N[C@@H](CC(=O)O)C(=O)N[C@@H](CCCCN)C(=O)N[C@@H](CC(=O)O)C(=O)N[C@@H](CCCCN)C(=O)N[C@@H](C)C(=O)N[C@@H](CC(N)=O)C(=O)N[C@H](C(=O)N[C@@H](C)C(=O)N1CCC[C@H]1C(=O)N1CCC[C@H]1C(=O)N[C@H](C(=O)N[C@@H](CC(N)=O)C(=O)N[C@H](C(=O)NCC(=O)N[C@@H](CO)C(=O)N[C@@H](CC(N)=O)C(=O)NCC(=O)N1C[C@H](O)C[C@H]1C(N)=O)C(C)C)[C@@H](C)O)C(C)C)[C@@H](C)O [compound 314] (H-KCNTATCTVQWLAHQIYQFTDKDKANVAPPTNVGSNG[Hyp]-NH2; disulfide 2-7; N-terminus assumed)
0.236	107	25.700	CC[C@H](C)[C@H](NC(=O)[C@H](CCC(N)=O)NC(=O)[C@H](CCC(=O)O)NC(=O)[C@H](C)NC(=O)[C@H](CC(C)C)NC(=O)[C@H](Cc1c[nH]c2ccccc12)NC(=O)[C@H](CCC(N)=O)NC(=O)[C@@H](NC(=O)[C@@H](NC(=O)[C@@H]1CSSC[C@H](NC(=O)[C@@H](N)CCCCN)C(=O)N[C@@H](CC(N)=O)C(=O)N[C@@H](C)C(=O)N[C@@H](C)C(=O)N[C@@H]([C@@H](C)O)C(=O)N1)[C@@H](C)O)C(C)C)C(=O)N[C@@H](Cc1ccc(O)cc1)C(=O)N[C@@H](CCC(N)=O)C(=O)N[C@@H](Cc1ccccc1)C(=O)N[C@H](C(=O)N[C@@H](CC(=O)O)C(=O)N[C@@H](CCCCN)C(=O)N[C@@H](CC(=O)O)C(=O)N[C@@H](CCCCN)C(=O)N[C@@H](CC(=O)O)C(=O)N[C@@H](CC(N)=O)C(=O)N[C@H](C(=O)N[C@@H](C)C(=O)N1CCC[C@H]1C(=O)N1CCC[C@H]1C(=O)N[C@H](C(=O)N[C@@H](CC(N)=O)C(=O)N[C@H](C(=O)NCC(=O)N[C@@H](CO)C(=O)N[C@@H](CC(N)=O)C(=O)NCC(=O)N1C[C@H](O)C[C@H]1C(N)=O)C(C)C)[C@@H](C)O)C(C)C)[C@@H](C)O [compound 333] (H-KCNAATCTVQWLAEQIYQFTDKDKDNVAPPTNVGSNG[Hyp]-NH2; disulfide 2-7; N-terminus assumed)
